The nature of the data set: Pharmacokinetic study in sham and myocardial ischemia model rats after a single oral dose of QSKL (UHPLC-psMS/MS of plasma, non-compartmental analysis). The following applies: for AUC(0-inf): AUC0–∞.
The mark [1] stands for this setting: QSKL-treated plasma samples, sham and model rats, single oral dose 8.0 g/kg.
[2] abbreviates: male, Sprague-Dawley, rat, plasma, po, 8 g/kg, AUC0–t, model group (MG, myocardial ischemia) rats, oral administration of QSKL, plasma, mean ± SD, n = 6.
Setting [3] is: male, Sprague-Dawley, rat, plasma, po, 8 g/kg, AUC0–t, sham group (SG) rats, oral administration of QSKL, plasma, mean ± SD, n = 6.
Setting [4] is: male, Sprague-Dawley, rat, plasma, po, 8 g/kg, model group (MG, myocardial ischemia) rats, oral administration of QSKL, plasma, mean ± SD, n = 6.
The mark [5] stands for this setting: male, Sprague-Dawley, rat, plasma, po, 8 g/kg, sham group (SG) rats, oral administration of QSKL, plasma, mean ± SD, n = 6.
[6] abbreviates: male, Sprague-Dawley, rat, plasma, po, 8 g/kg, Cmax, model group (MG, myocardial ischemia) rats, oral administration of QSKL, plasma, mean ± SD, n = 6.
Where [7] appears, read: male, Sprague-Dawley, rat, plasma, po, 8 g/kg, Cmax, sham group (SG) rats, oral administration of QSKL, plasma, mean ± SD, n = 6.
Where [8] appears, read: male, Sprague-Dawley, rat, plasma, po, 8 g/kg, t1/2, model group (MG, myocardial ischemia) rats, oral administration of QSKL, plasma, mean ± SD, n = 6.
Where [9] appears, read: male, Sprague-Dawley, rat, plasma, po, 8 g/kg, t1/2, sham group (SG) rats, oral administration of QSKL, plasma, mean ± SD, n = 6.
[10] abbreviates: male, Sprague-Dawley, rat, plasma, po, 8 g/kg, AUC0→t, model (myocardial ischemia, LAD ligation) rats, single oral dose of 8.0 g/kg QSKL, mean ± SD, n = 6.
The mark [11] stands for this setting: male, Sprague-Dawley, rat, plasma, po, 8 g/kg, AUC0→t, sham rats, single oral dose of 8.0 g/kg QSKL, mean ± SD, n = 6.
The mark [12] stands for this setting: male, Sprague-Dawley, rat, plasma, po, 8 g/kg, rats, after oral dosing QSKL 8.0 g/kg.
Where [13] appears, read: rats, after oral dosing QSKL 8.0 g/kg.

One may read the AUC(0-t) as the area under the concentration-time curve up to a stated or last time point. The term AUC(0-inf) denotes the area under the concentration-time curve extrapolated to infinity. High values mean more exposure, low ones less exposure. The Cmax is the highest concentration seen after dosing. What is called MRT is a mean duration of stay, worked out from the concentration-time curve. The term Tmax denotes the time at which the peak concentration occurs. The half-life is the time needed for the level to fall by half in the phase considered. Higher therefore signals slow decline.

Method: Twelve male Spargue-Dawley rats (200 ± 20 g) were supplied by Vital River Laboratory Animal Technology Co. Ltd. (Beijing, China). […] The rats were acclimated under a humidity (50%) controlled room at 22–25 °C with a 12 h light-dark cycle, and standard diet and water were provided ad libitum for one week.
Afterwards, all rats were randomly divided into two groups, namely sham and model groups. The myocardial ischemia model was simulated by left anterior descending (LAD) coronary artery ligation [12], whilst the rats belonging to the sham group received the similar surgery, however no actual ligation in LAD. All animals were fasted overnight with free access to water prior to oral dosing. Aliquots (250 μL) of blood were sampled at 0 (pre-dose), 0.08, 0.25, 0.5, 0.75, 1, 1.5, 2, 4, 6, 8, 12, and 24 h from venous around eye socket into heparinized tubes after a single oral dosing of 8.0 g/kg of QSKL and the collected blood samples were immediately subjected for 4000 rpm centrifugation for 10 min at 4 °C to harvest the plasma samples. Each 100 μL aliquot of plasma sample was transferred into another Eppendorf tube and stored at −80 °C till use.
When analysis, 300 μL of internal standards (200 ng/mL for either internal standard) fortified ACN, corresponding to three volumes of plasma, was spiked into each thawed plasma sample and mixed thoroughly. Then, the resulting samples were processed as those calibration samples.
Individual animal plasma concentrations versus time dataset were subjected to a non-compartmental pharmacokinetic analysis using WinNonlin software (ver. 6.4, Pharsight Corp., Sunnyvale, CA, USA). The pharmacokinetic parameters of each analyte including the maximum plasma concentration (Cmax), the time at which Cmax was achieved (Tmax), the terminal elimination half-life (t1/2), and the area under the plasma concentration versus time curve (AUC0→t along with AUC0→∞) were calculated. Moreover, Lz corresponding to the ratio of the dosage and AUC0→∞, as well as mean residence time (MRT) that was defined as the ratio of the area under the first moment curve from time 0 to infinity (AUMC0→∞/AUC0→∞) was also calculated. All results are expressed as mean ± SD. Comparisons regarding the pharmacokinetic parameters were carried out between sham and model groups using Student’s t-test, and p values less than 0.05 were considered to be significant.

Take `CCN1C[C@]2(COC)[C@H](O)C[C@H](OC)[C@@]34[C@@H]5C[C@@]6(O)[C@H](OC(=O)c7ccccc7)[C@@H]5[C@@](OC(C)=O)([C@@H]([C@H](OC)[C@H]23)[C@@H]14)[C@@H](O)[C@@H]6OC` [aconitine]: the “distribution in rat plasma (quantifiable or not)” value under setting [1] was “unquantifiable in most QSKL-treated samples”.

For `COc1ccc(-c2coc3cc(O)ccc3c2=O)cc1O` [calycosin], the “distribution in rat plasma (quantifiable or not)” value under setting [1] was “quantifiable in most samples”. For the same compound, the AUC(0-t) by setting is: under setting [2], 0.89 ± 0.284 ng·h/mL; under setting [3], 1.03 ± 0.181 ng·h/mL. Also, the AUC(0-inf) amounted to 1.04 ± 0.268 ng·h/mL under setting [4] and 3.09 ± 1.95 ng·h/mL under setting [5]. In addition, the peak concentration (Cmax) runs as follows: under setting [6], 0.347 ± 0.197 ng/mL; under setting [7], 0.3 ± 0.244 ng/mL. Further, the MRT reads like this: under setting [4], 15 ± 4.54 h; under setting [5], 55.9 ± 34.6 h. The time of peak concentration (Tmax) by setting is: under setting [4], 0.28 ± 0.24 h; under setting [5], 0.33 ± 0.29 h. This compound had a half-life under setting [8] of 9.27 ± 3.21 h and a half-life under setting [9] of 38.2 ± 24.5 h.

For `COc1ccc(-c2coc3cc(O)ccc3c2=O)cc1` [formononetin], under setting [1], the “distribution in rat plasma (quantifiable or not)” value is reported as “quantifiable in most samples”. Further, the exposure AUC(0-t) by setting is: under setting [2], 1.2 ± 0.482 ng·h/mL; under setting [3], 0.966 ± 0.351 ng·h/mL. In addition, the AUC(0-inf) runs as follows: under setting [4], 1.32 ± 0.472 ng·h/mL; under setting [5], 1.22 ± 0.609 ng·h/mL. Besides, the Cmax runs as follows: under setting [6], 0.47 ± 0.291 ng/mL; under setting [7], 0.243 ± 0.127 ng/mL. In addition, the MRT came to 5.47 ± 2.56 h under setting [4] and 7 ± 2.97 h under setting [5]. Besides, the Tmax came to 0.51 ± 0.46 h under setting [4] and 0.61 ± 0.53 h under setting [5]. Moreover, the half-life is 3.81 ± 1.89 h under setting [8] and 4.7 ± 2.32 h under setting [9].

With `CC1(C)[C@@H](O)CC[C@]2(C)[C@H]3C(=O)C=C4[C@@H]5C[C@@](C)(C(=O)O)CC[C@]5(C)CC[C@@]4(C)[C@]3(C)CC[C@@H]12` [glycyrrhetic acid], the AUC(0-t) by setting is: under setting [2], 5040 ± 1860 ng·h/mL; under setting [3], 3200 ± 298 ng·h/mL; under setting [10], 5040 ± 1860 ng·h/mL; under setting [11], 3200 ± 298 ng·h/mL. The compound further came in with an AUC(0-inf) under setting [4] of 14500 ± 5750 ng·h/mL. Further, the Cmax was determined as 230 ± 57.1 ng/mL under setting [7]; 230 ± 57.1 ng/mL (male, Sprague-Dawley, rat, plasma, po, 8 g/kg, Cmax, sham rats, single oral dose of 8.0 g/kg QSKL, mean ± SD, n = 6); 376 ± 196 ng/mL (model (myocardial ischemia, LAD ligation) rats, single oral dose of 8.0 g/kg QSKL, mean ± SD, n = 6); 376 ± 196 ng/mL (model group (MG, myocardial ischemia) rats, oral administration of QSKL, plasma, mean ± SD, n = 6). For the same compound, the MRT under setting [4] is 41.9 ± 21.5 h. Moreover, the time of peak concentration (Tmax) is, setting by setting: under setting [4], 13.3 ± 8.55 h; under setting [12], more than 12 h; under setting [5], 14 ± 4.9 h. The half-life under setting [8] was 26.3 ± 15.6 h. In addition, under setting [13], the “shape of plasma concentration-time profile” value (from here on “shape”) is given as “Multiple-peak profiles”.

In the case of `CC1(C)[C@@H](O[C@H]2O[C@H](C(=O)O)[C@@H](O)[C@H](O)[C@H]2O[C@@H]2O[C@H](C(=O)O)[C@@H](O)[C@H](O)[C@H]2O)CC[C@]2(C)[C@H]3C(=O)C=C4[C@@H]5C[C@@](C)(C(=O)O)CC[C@]5(C)CC[C@@]4(C)[C@]3(C)CC[C@@H]12` [glycyrrhizic acid], the “distribution in rat plasma (quantifiable or not)” value under setting [1] was “quantifiable in most samples”. Besides, the area under the curve AUC(0-t) reads like this: under setting [2], 72.8 ± 27.8 ng·h/mL; under setting [3], 37.9 ± 7.11 ng·h/mL; under setting [10], 72.8 ± 27.8 ng·h/mL; under setting [11], 37.9 ± 7.11 ng·h/mL. Also, the AUC(0-inf) is, setting by setting: under setting [4], 170 ± 69.1 ng·h/mL; under setting [5], 130 ± 69.1 ng·h/mL. Moreover, the Cmax runs as follows: under setting [6], 8.87 ± 5.97 ng/mL; under setting [7], 3.34 ± 1.12 ng/mL. Besides, the MRT is 40.2 ± 21.7 h under setting [4] and 63.7 ± 34.4 h under setting [5]. The time of peak concentration (Tmax) under setting [5] worked out at 1.46 ± 1.35 h. Also, the half-life is 27.8 ± 14.2 h under setting [8] and 43.2 ± 25.4 h under setting [9]. Moreover, the “shape” value under setting [13] is recorded as “Multiple-peak profiles”.

In turn, `C[C@]1(OC(=O)/C=C/c2ccccc2)C[C@@H](O)[C@]2(O)C=CO[C@@H](O[C@@H]3O[C@H](CO)[C@@H](O)[C@H](O)[C@H]3O)[C@@H]21` [harpagoside] returned an AUC(0-t) under setting [2] of 2.4 ± 2.04 ng·h/mL. For the same compound, the AUC(0-inf) under setting [4] was 2.2 ± 1.77 ng·h/mL. Also, the Cmax is, setting by setting: (male, Sprague-Dawley, rat, plasma, po, 8 g/kg, Cmax, model (myocardial ischemia, LAD ligation) rats, single oral dose of 8.0 g/kg QSKL, mean ± SD, n = 6) 1.02 ± 0.692 ng/mL; under setting [6], 1.02 ± 0.692 ng/mL. Also, under setting [4], the MRT was found to be 18.7 ± 16.7 h. Also, under setting [4], the time to peak (Tmax) is 0.56 ± 0.38 h. This compound showed a half-life under setting [8] of 16.1 ± 11.3 h. Also, the “distribution in rat plasma (quantifiable or not)” value by setting is: (plasma of the model group, single oral dose 8.0 g/kg QSKL) “always quantifiable”; (samples from the sham group, single oral dose 8.0 g/kg QSKL) “lower than its LOQ”.

In the case of `C[C@@H]1O[C@@H](O[C@@H]2[C@@H](O)[C@H](OCCc3ccc(O)c(O)c3)O[C@H](COC(=O)/C=C/c3ccc(O)c(O)c3)[C@H]2O)[C@H](O)[C@H](O)[C@H]1O` [isoacteoside], under setting [1], the “distribution in rat plasma (quantifiable or not)” value is reported as “unquantifiable in most QSKL-treated samples”.

Regarding `O=C(/C=C/c1ccc(O)cc1)c1ccc(O)cc1O` [isoliquiritigenin], the AUC(0-t) by setting is: under setting [2], 1.56 ± 0.668 ng·h/mL; under setting [3], 1.87 ± 1.21 ng·h/mL. For the same compound, the AUC(0-inf) runs as follows: under setting [4], 1.71 ± 0.74 ng·h/mL; under setting [5], 2.07 ± 1.31 ng·h/mL. Moreover, the Cmax is, setting by setting: under setting [6], 0.401 ± 0.103 ng/mL; under setting [7], 0.389 ± 0.137 ng/mL. Also, the MRT worked out at 8.14 ± 2.95 h under setting [4] and 7.85 ± 0.6 h under setting [5]. For the same compound, the Tmax runs as follows: under setting [4], 0.37 ± 0.28 h; under setting [5], 0.15 ± 0.13 h. Also, the half-life under setting [8] is 4.69 ± 2.06 h and the half-life under setting [9] was 4.37 ± 1.37 h. In addition, the “shape” value under setting [13] was “Multiple-peak profiles”.

Turning to `C=CC(C)(C)c1cc(/C=C/C(=O)c2ccc(O)cc2)c(OC)cc1O` [licochalcone A], the “distribution in rat plasma (quantifiable or not)” value under setting [1] is reported as “unquantifiable in most QSKL-treated samples”.

In the case of `COC(=O)C1=CO[C@@H](O[C@@H]2O[C@H](CO)[C@@H](O)[C@H](O)[C@H]2O)[C@@H]2[C@H](C)O[C@@H](O)C[C@H]12` [morroniside], the “distribution in rat plasma (quantifiable or not)” value under setting [1] is recorded as “quantifiable in most samples”. For the same compound, the AUC(0-t) runs as follows: under setting [2], 19.5 ± 3.53 ng·h/mL; under setting [3], 16.5 ± 3.91 ng·h/mL. Further, the AUC(0-inf) amounted to 29.2 ± 4.1 ng·h/mL under setting [4] and 24.9 ± 2.95 ng·h/mL under setting [5]. For the same compound, the Cmax runs as follows: under setting [6], 4.21 ± 3.41 ng/mL; under setting [7], 2.04 ± 1.07 ng/mL. Besides, the MRT reads like this: under setting [4], 21.1 ± 8.23 h; under setting [5], 25.1 ± 13.5 h. The Tmax was determined as 0.46 ± 0.25 h under setting [4] and 0.37 ± 0.19 h under setting [5]. The compound also gave a half-life under setting [8] of 14.2 ± 5.79 h and a half-life under setting [9] of 15.8 ± 9.38 h.

On to `Cc1coc2c1C(=O)C(=O)c1c-2ccc2c1CCCC2(C)C` [tanshinone IIA], for which, under setting [1], the “distribution in rat plasma (quantifiable or not)” value was “quantifiable in most samples”. Also, the AUC(0-t) is 4.28 ± 0.678 ng·h/mL under setting [2], 3.18 ± 0.664 ng·h/mL under setting [3], 4.28 ± 0.678 ng·h/mL under setting [10] and 3.18 ± 0.664 ng·h/mL under setting [11]. Moreover, the AUC(0-inf) reads like this: under setting [4], 7.17 ± 3.08 ng·h/mL; under setting [5], 4.77 ± 1.45 ng·h/mL. The Cmax runs as follows: under setting [6], 0.349 ± 0.089 ng/mL; under setting [7], 0.376 ± 0.15 ng/mL. Further, the MRT reads like this: under setting [4], 26.4 ± 14.9 h; under setting [5], 20.9 ± 5.14 h. The Tmax under setting [4] was 8.71 ± 8.03 h, the Tmax under setting [12] was 8 h and the Tmax under setting [5] is 0.67 ± 0.3 h. Besides, the half-life under setting [8] is 18 ± 10.8 h and the half-life under setting [9] is 13.8 ± 4.05 h.

For the origin of these results see article PMC6150229, “Simultaneous Determination of Twenty-Five Compounds in Rat Plasma Using Ultra-High Performance Liquid Chromatography-Polarity Switching Tandem Mass Spectrometry and Its Application to a Pharmacokinetic Study” (Molecules : A Journal of Synthetic Chemistry and Natural …, 2017).
